# In PMC7377239, “Cardiovascular Effects of Polychlorinated Biphenyls and Their Major Metabolites” (Environmental Health Perspectives, 2020):
# Like-named read-outs stand apart in the source and are kept apart here.
# How the values were obtained:
# [1] = test system: iCell endothelial cells (human iPSC-derived ECs); assay: Tube formation (tubulogenesis) assay in iCell endothelial cells, 18 h; assay type: cell-based; conditions: Homo sapiens, Endothelial cell, 18 hr; for activity at 0.1 µM: 0.10 µM
# How it was run: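 iCell ECs (passages 1–5) seeded 7,500 cells/well on reduced-growth-factor Geltrex in starvation medium, exposed overnight at 37°C to compounds in triplicate concentration–response (0.5% DMSO vehicle). Calcein AM staining, 4× imaging, angiogenesis image analysis; readouts normalized to vehicle, four-parameter logistic fit, POD at 1 SD of vehicle; 100 μM assigned NOAEL if no response.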
# HUVECs = assay: High-content imaging cytotoxicity in HUVECs, 24 h; assay type: cell-based, human; conditions: Homo sapiens, HUVEC, 24 h; for viability at 0.01 µM / activity at 0.01 µM / viability at 0.1 µM / activity at 0.1 µM / viability at 1 µM / activity at 1 µM / viability at 10 µM / activity at 10 µM / viability at 100 µM / activity at 100 µM: 0.00 µM = 100.00; for viability at 0.1 µM / activity at 0.1 µM: 0.10 µM
# How it was run: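 HUVECs (passages 1–5) were plated at 750 cells/well without fibronectin, grown to a monolayer (3–5 d) and exposed to compounds for 24 h at 37°C, 5% CO2. Hoechst 33342, MitoTracker Orange and calcein AM staining was imaged at 10×; readouts were normalized to 0.5% DMSO vehicle and fit to a four-parameter logistic model.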
# [2] = iPSC-EC tube formation, 0.00 µM control = 100.00, read-out: endo.mtl.18hr
# [3] = iPSC-EC tube formation, 0.00 µM control = 100.00, read-out: endo.tlps.18hr
# [4] = iPSC-EC tube formation, 0.00 µM control = 100.00, read-out: endo.tta.18hr
# [5] = iPSC-EC tube formation, 0.00 µM control = 100.00, read-out: endo.ttl.18hr
# [6] = HUVECs, 24 hr, read-out: huvec.cyto.24hr
# [7] = HUVECs, 24 hr, read-out: huvec.mito.24hr
# [8] = HUVECs, 24 hr, read-out: huvec.mitoint.24hr
# [9] = HUVECs, 24 hr, read-out: huvec.nma.24hr
# [10] = HUVECs, 24 hrs, read-out: huvec.tc.24hrs
# [11] = endothelial cells (endo), tube formation mtl, read-out: POD endo.mtl.18hr
# [12] = endothelial cells (endo), tube formation tlps, read-out: POD endo.tlps.18hr
# [13] = endothelial cells (endo), tube formation tta, read-out: POD endo.tta.18hr
# [14] = endothelial cells (endo), tube formation ttl, read-out: POD endo.ttl.18hr
# [15] = cyto, 24 hr, read-out: POD huvec.cyto.24hr
# [16] = mito, 24 hr, read-out: POD huvec.mito.24hr
# [17] = mitoint, 24 hr, read-out: POD huvec.mitoint.24hr
# [18] = nma, 24 hr, read-out: POD huvec.nma.24hr
# [19] = tc, 24 hr, read-out: POD huvec.tc.24hr
smiles,measurement,setting,value
Clc1ccc(-c2ccccc2)cc1 [PCB3],activity at 0.01 µM,[1]; [2],114%
same,activity at 0.01 µM,[1]; [3],108%
same,activity at 0.01 µM,[1]; [4],123%
same,activity at 0.01 µM,[1]; [5],120%
same,activity at 0.1 µM,[1]; [2],106%
same,activity at 0.1 µM,[1]; [3],111%
same,activity at 0.1 µM,[1]; [4],102%
same,activity at 0.1 µM,[1]; [5],98.7%
same,activity at 1 µM,[1]; [2],119%
same,activity at 1 µM,[1]; [3],171%
same,activity at 1 µM,[1]; [4],126%
same,activity at 1 µM,[1]; [5],123%
same,activity at 10 µM,[1]; [2],118%
same,activity at 10 µM,[1]; [3],103%
same,activity at 10 µM,[1]; [4],109%
same,activity at 10 µM,[1]; [5],111%
same,activity at 100 µM,[1]; [2],107%
same,activity at 100 µM,[1]; [3],113%
same,activity at 100 µM,[1]; [4],93.3%
same,activity at 100 µM,[1]; [5],95.4%
same,minimal effective concentration,"[1]; iPSC-EC tube formation, top concentration 100.00 µM, read-out: endo.mtl.18hr POD",100 µM
same,minimal effective concentration,"[1]; iPSC-EC tube formation, top concentration 100.00 µM, read-out: endo.tlps.18hr POD",100 µM
same,minimal effective concentration,"[1]; iPSC-EC tube formation, top concentration 100.00 µM, read-out: endo.tta.18hr POD",100 µM
same,minimal effective concentration,"[1]; iPSC-EC tube formation, top concentration 100.00 µM, read-out: endo.ttl.18hr POD",100 µM
same,viability at 0.01 µM,HUVECs; [6],83.5%
same,activity at 0.01 µM,HUVECs; [7],83.3%
same,activity at 0.01 µM,HUVECs; [8],93.5%
same,activity at 0.01 µM,HUVECs; [9],94.7%
same,viability at 0.1 µM,HUVECs; [6],87.1%
same,activity at 0.1 µM,HUVECs; [7],86.7%
same,activity at 0.1 µM,HUVECs; [8],118%
same,activity at 0.1 µM,HUVECs; [9],93%
same,viability at 1 µM,HUVECs; [6],73.5%
same,activity at 1 µM,HUVECs; [7],72.5%
same,activity at 1 µM,HUVECs; [8],97.5%
same,activity at 1 µM,HUVECs; [9],93.1%
same,viability at 10 µM,HUVECs; [6],87.9%
same,activity at 10 µM,HUVECs; [7],85.4%
same,activity at 10 µM,HUVECs; [8],76%
same,activity at 10 µM,HUVECs; [9],85.2%
same,viability at 100 µM,HUVECs; [6],56%
same,activity at 100 µM,HUVECs; [7],44.6%
same,activity at 100 µM,HUVECs; [8],51%
same,activity at 100 µM,HUVECs; [9],71%
same,minimal effective concentration,"HUVECs; HUVECs, 24 hr, top concentration 100.00 µM, read-out: huvec.cyto.24hr POD",100 µM
same,minimal effective concentration,"HUVECs; HUVECs, 24 hr, top concentration 100.00 µM, read-out: huvec.mito.24hr POD",100 µM
same,minimal effective concentration,"HUVECs; HUVECs, 24 hr, top concentration 100.00 µM, read-out: huvec.mitoint.24hr POD",100 µM
same,minimal effective concentration,"HUVECs; HUVECs, 24 hr, top concentration 100.00 µM, read-out: huvec.nma.24hr POD",100 µM
same,viability at 0.01 µM,HUVECs; [10],83.5%
same,viability at 0.1 µM,HUVECs; [10],87.1%
same,viability at 1 µM,HUVECs; [10],73.7%
same,viability at 10 µM,HUVECs; [10],88%
same,viability at 100 µM,HUVECs; [10],56.1%
same,minimal effective concentration,"HUVECs; HUVECs, 24 hrs, top concentration 100.00 µM, read-out: huvec.tc.24hrs POD",100 µM
Oc1ccc(-c2ccc(Cl)cc2)cc1 [4'-OH-PCB 3],minimal effective concentration,[1]; [11],1.21 µM
same,minimal effective concentration,[1]; [12],0.19 µM
same,minimal effective concentration,[1]; [13],1.16 µM
same,minimal effective concentration,[1]; [14],1.12 µM
same,minimal effective concentration,HUVECs; [15],7.01 µM
same,minimal effective concentration,HUVECs; [16],3.9 µM
same,minimal effective concentration,HUVECs; [17],11.2 µM
same,minimal effective concentration,HUVECs; [18],6.91 µM
same,minimal effective concentration,HUVECs; [19],7.01 µM
"Clc1ccc(-c2ccccc2)cc1 [PCB 3, 4-chlorobiphenyl]",minimal effective concentration,[1]; [11],100 µM
same,minimal effective concentration,[1]; [12],100 µM
same,minimal effective concentration,[1]; [13],100 µM
same,minimal effective concentration,[1]; [14],100 µM
same,minimal effective concentration,HUVECs; [15],100 µM
same,minimal effective concentration,HUVECs; [16],100 µM
same,minimal effective concentration,HUVECs; [17],100 µM
same,minimal effective concentration,HUVECs; [18],100 µM
same,minimal effective concentration,HUVECs; [19],100 µM
